System: COR L88 complex tumor spheroid viability
Assay: Anticancer human tumor COR L88 cell line growth inhibition;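 also: compound exposure lasted 7 days before viability readout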;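 as to viability, T/C: percent of DMSO vehicle-treated spheroids = 100%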
Conditions: for IC50: curve of first compound; for viability, T/C: stronger effect = lower value
Summary of the method: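 Complex spheroids of malignant cells with endothelial cells and mesenchymal stem cells; agents alone or combined, from near clinical Cmax (or 10 microM if unknown) down in half-log steps, 0.25% DMSO final.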

[1] = second compound 0.003 µM, first compound 0.0316 µM
[2] = second compound 0.003 µM, first compound 0.1 µM
[3] = second compound 0.003 µM, first compound 0.316 µM
[4] = second compound 0.003 µM, first compound 1 µM
[5] = second compound 0.003 µM, first compound 3.16 µM
[6] = second compound 0.003 µM, first compound 10 µM
[7] = second compound 0.00949 µM, first compound 0.0316 µM
[8] = second compound 0.00949 µM, first compound 0.1 µM
[9] = second compound 0.00949 µM, first compound 0.316 µM
[10] = second compound 0.00949 µM, first compound 1 µM
[11] = second compound 0.00949 µM, first compound 3.16 µM
[12] = second compound 0.00949 µM, first compound 10 µM
[13] = second compound 0.03 µM, first compound 0.0316 µM
[14] = second compound 0.03 µM, first compound 0.1 µM
[15] = second compound 0.03 µM, first compound 0.316 µM
[16] = second compound 0.03 µM, first compound 1 µM
[17] = second compound 0.03 µM, first compound 3.16 µM
[18] = second compound 0.03 µM, first compound 10 µM
[19] = second compound 0.0949 µM, first compound 0.0316 µM
[20] = second compound 0.0949 µM, first compound 0.1 µM
[21] = second compound 0.0949 µM, first compound 0.316 µM
[22] = second compound 0.0949 µM, first compound 1 µM
[23] = second compound 0.0949 µM, first compound 3.16 µM
[24] = second compound 0.0949 µM, first compound 10 µM
[25] = second compound 0.3 µM, first compound 0.0316 µM
[26] = second compound 0.3 µM, first compound 0.1 µM
[27] = second compound 0.3 µM, first compound 0.316 µM
[28] = second compound 0.3 µM, first compound 1 µM
[29] = second compound 0.3 µM, first compound 3.16 µM
[30] = second compound 0.3 µM, first compound 10 µM

Compound: CC1COCCN1c1cc(-c2ccnn2C)c2ccnc(-c3ccn[nH]3)c2n1 (stereo not given) + CC[C@@]1(O)C(=O)OCc2c1cc1n(c2=O)Cc2cc3c(CN(C)C)c(O)ccc3nc2-1
- IC50 (second compound 0.003 µM): 150 nM
- IC50 (second compound 0.00949 µM): < 31.6 nM
- IC50 (second compound 0.03 µM): < 31.6 nM
- IC50 (second compound 0.0949 µM): < 31.6 nM
- IC50 (second compound 0.3 µM): < 31.6 nM
- viability, T/C [1]: 72.1%
- viability, T/C [2]: 53.5%
- viability, T/C [3]: 41.7%
- viability, T/C [4]: 25.8%
- viability, T/C [5]: 16.1%
- viability, T/C [6]: 4.41%
- viability, T/C [7]: 37.8%
- viability, T/C [8]: 35.5%
- viability, T/C [9]: 27.7%
- viability, T/C [10]: 17.1%
- viability, T/C [11]: 7.44%
- viability, T/C [12]: 3.34%
- viability, T/C [13]: 26.1%
- viability, T/C [14]: 23%
- viability, T/C [15]: 16.6%
- viability, T/C [16]: 10.1%
- viability, T/C [17]: 5.31%
- viability, T/C [18]: 2.97%
- viability, T/C [19]: 15.2%
- viability, T/C [20]: 12.2%
- viability, T/C [21]: 8.67%
- viability, T/C [22]: 5.76%
- viability, T/C [23]: 2.87%
- viability, T/C [24]: 1.98%
- viability, T/C [25]: 6.79%
- viability, T/C [26]: 6.02%
- viability, T/C [27]: 5.21%
- viability, T/C [28]: 3.2%
- viability, T/C [29]: 1.82%
- viability, T/C [30]: 1.1%

Compound: COc1cc(C)[nH]c(=O)c1CN1CCc2c(Cl)cc(C(OC)C3COC3)c(Cl)c2C1=O (stereo not given) + CC[C@@]1(O)C(=O)OCc2c1cc1n(c2=O)Cc2cc3c(CN(C)C)c(O)ccc3nc2-1
- IC50 (second compound 0.003 µM): > 10000 nM
- IC50 (second compound 0.00949 µM): > 10000 nM
- IC50 (second compound 0.03 µM): < 31.6 nM
- IC50 (second compound 0.0949 µM): < 31.6 nM
- IC50 (second compound 0.3 µM): < 31.6 nM
- viability, T/C [1]: 87%
- viability, T/C [2]: 90.9%
- viability, T/C [3]: 83.5%
- viability, T/C [4]: 85.4%
- viability, T/C [5]: 86.5%
- viability, T/C [6]: 75%
- viability, T/C [7]: 65.7%
- viability, T/C [8]: 53.2%
- viability, T/C [9]: 53.3%
- viability, T/C [10]: 50.9%
- viability, T/C [11]: 49%
- viability, T/C [12]: 52.7%
- viability, T/C [13]: 43.3%
- viability, T/C [14]: 44.3%
- viability, T/C [15]: 38.7%
- viability, T/C [16]: 39.2%
- viability, T/C [17]: 35.5%
- viability, T/C [18]: 17.1%
- viability, T/C [19]: 46.2%
- viability, T/C [20]: 43.8%
- viability, T/C [21]: 41.2%
- viability, T/C [22]: 45.5%
- viability, T/C [23]: 38.2%
- viability, T/C [24]: 19.1%
- viability, T/C [25]: 47.6%
- viability, T/C [26]: 46.1%
- viability, T/C [27]: 41.2%
- viability, T/C [28]: 42.8%
- viability, T/C [29]: 41.2%
- viability, T/C [30]: 37.5%

Compound: COc1ccc([C@@H](O)c2cc(-c3ncnc4cc(N5CCOCC5)ccc34)c(F)cc2Cl)nn1 + CC[C@@]1(O)C(=O)OCc2c1cc1n(c2=O)Cc2cc3c(CN(C)C)c(O)ccc3nc2-1
- IC50 (second compound 0.003 µM): 3180 nM
- IC50 (second compound 0.00949 µM): 4000 nM
- IC50 (second compound 0.03 µM): 98.3 nM
- IC50 (second compound 0.0949 µM): 122 nM
- IC50 (second compound 0.3 µM): 132 nM
- viability, T/C [1]: 96.3%
- viability, T/C [2]: 101%
- viability, T/C [3]: 94.2%
- viability, T/C [4]: 71.8%
- viability, T/C [5]: 52.3%
- viability, T/C [6]: 34.6%
- viability, T/C [7]: 68.3%
- viability, T/C [8]: 68.7%
- viability, T/C [9]: 67.9%
- viability, T/C [10]: 57.6%
- viability, T/C [11]: 52.9%
- viability, T/C [12]: 40.6%
- viability, T/C [13]: 53.1%
- viability, T/C [14]: 53.6%
- viability, T/C [15]: 46.6%
- viability, T/C [16]: 40.1%
- viability, T/C [17]: 32%
- viability, T/C [18]: 38.5%
- viability, T/C [19]: 55.3%
- viability, T/C [20]: 53.2%
- viability, T/C [21]: 45.2%
- viability, T/C [22]: 40.5%
- viability, T/C [23]: 31.8%
- viability, T/C [24]: 31.7%
- viability, T/C [25]: 54.2%
- viability, T/C [26]: 51%
- viability, T/C [27]: 43.9%
- viability, T/C [28]: 37.6%
- viability, T/C [29]: 18.6%
- viability, T/C [30]: 8.14%

Compound: [2H]c1nc(C)nc([2H])c1-c1cc(NC[C@@H](C)c2cccc3c(C(=O)NC)ccnc23)ncn1 + CC[C@@]1(O)C(=O)OCc2c1cc1n(c2=O)Cc2cc3c(CN(C)C)c(O)ccc3nc2-1
- IC50 (second compound 0.003 µM): > 10000 nM
- IC50 (second compound 0.00949 µM): > 10000 nM
- IC50 (second compound 0.03 µM): 2000 nM
- IC50 (second compound 0.0949 µM): 1550 nM
- IC50 (second compound 0.3 µM): 8580 nM
- viability, T/C [1]: 99.2%
- viability, T/C [2]: 98.1%
- viability, T/C [3]: 103%
- viability, T/C [4]: 99%
- viability, T/C [5]: 101%
- viability, T/C [6]: 100%
- viability, T/C [7]: 68.6%
- viability, T/C [8]: 72.5%
- viability, T/C [9]: 83.1%
- viability, T/C [10]: 87.7%
- viability, T/C [11]: 85%
- viability, T/C [12]: 85.1%
- viability, T/C [13]: 56.6%
- viability, T/C [14]: 58.3%
- viability, T/C [15]: 52.1%
- viability, T/C [16]: 55.2%
- viability, T/C [17]: 47.3%
- viability, T/C [18]: 38.9%
- viability, T/C [19]: 58.3%
- viability, T/C [20]: 59.8%
- viability, T/C [21]: 54.7%
- viability, T/C [22]: 62.5%
- viability, T/C [23]: 34.4%
- viability, T/C [24]: 37%
- viability, T/C [25]: 55.9%
- viability, T/C [26]: 55.4%
- viability, T/C [27]: 57.1%
- viability, T/C [28]: 57.3%
- viability, T/C [29]: 57.1%
- viability, T/C [30]: 42.4%

Reference: PubChem BioAssay AID1845201 (Molecular Pharmacology Branch, DTP, NCI, 2023)
